Laboratory results as given in article PMC5814754, “Quantitative, Wide-Spectrum Kinase Profiling in Live Cells for Assessing the Effect of Cellular ATP on Target Engagement” (Cell Chemical Biology, 2018).
Like-named read-outs stand apart in the source and are kept apart here. Blank lines part the entries; values can stand above or below the compound they belong to.

Legend:
Assay in all cases: Apparent affinity (EC50) of energy transfer probes by titration onto live HEK293 cells expressing kinase/Nluc fusions (Table S1)
Assay type in all cases: binding
[1] = target: full-length kinase/Nluc fusion proteins (Homo sapiens, UniProt P42680); settings: TEC (NP_003206), Nluc orientation N; read-out: Probe EC50
[2] = target: full-length kinase/Nluc fusion proteins (Homo sapiens, UniProt P54753); settings: EPHB3, Nluc C; read-out: Probe EC50
[3] = target: full-length kinase/Nluc fusion proteins (Homo sapiens, UniProt P09619); settings: PDGFRB, Nluc C; read-out: Probe EC50
[4] = target: full-length kinase/Nluc fusion proteins (Homo sapiens, UniProt P54756); settings: EPHA5, Nluc C; read-out: Probe EC50
[5] = target: full-length kinase/Nluc fusion proteins (Homo sapiens, UniProt P07947); settings: YES1 (NP_005424), Nluc orientation C; read-out: Probe EC50
[6] = target: full-length kinase/Nluc fusion proteins (Homo sapiens, UniProt P06241); settings: FYN, Nluc C; read-out: Probe EC50
[7] = target: full-length kinase/Nluc fusion proteins (Homo sapiens, UniProt P07948); settings: LYN, Nluc C; read-out: Probe EC50
[8] = target: full-length kinase/Nluc fusion proteins (Homo sapiens, UniProt Q15569); settings: TESK1 (NP_006276), Nluc orientation N; read-out: Probe EC50
[9] = target: full-length kinase/Nluc fusion proteins (Homo sapiens, UniProt P35590); settings: TIE1 (NP_005415), Nluc orientation C; read-out: Probe EC50
[10] = target: full-length kinase/Nluc fusion proteins (Homo sapiens, UniProt O43283); settings: MAP3K13, Nluc N; read-out: Probe EC50
[11] = target: full-length kinase/Nluc fusion proteins (Homo sapiens, UniProt Q14680); settings: MELK, Nluc N; read-out: Probe EC50
[12] = target: full-length kinase/Nluc fusion proteins (Homo sapiens, UniProt Q08881); settings: ITK, Nluc N; read-out: Probe EC50
[13] = target: full-length kinase/Nluc fusion proteins (Homo sapiens, UniProt Q9NYY3); settings: PLK2, Nluc N; read-out: Probe EC50
[14] = target: full-length kinase/Nluc fusion proteins (Homo sapiens, UniProt Q9Y463); settings: DYRK1B, Nluc N; read-out: Probe EC50
[15] = target: full-length kinase/Nluc fusion proteins (Homo sapiens, UniProt Q9NWZ3); settings: IRAK4, Nluc C; read-out: Probe EC50
[16] = target: full-length kinase/Nluc fusion proteins (Homo sapiens, UniProt Q16816); settings: PHKG1, Nluc N; read-out: Probe EC50
[17] = target: full-length kinase/Nluc fusion proteins (Homo sapiens, UniProt O75460); settings: ERN1, Nluc C; read-out: Probe EC50
[18] = target: full-length kinase/Nluc fusion proteins (Homo sapiens, UniProt P30530); settings: AXL, Nluc C; read-out: Probe EC50
[19] = target: full-length kinase/Nluc fusion proteins (Homo sapiens, UniProt O15146); settings: MUSK, Nluc C; read-out: Probe EC50
[20] = target: full-length kinase/Nluc fusion proteins (Homo sapiens, UniProt P04629); settings: NTRK1, Nluc C; read-out: Probe EC50
[21] = target: full-length kinase/Nluc fusion proteins (Homo sapiens, UniProt P51956); settings: NEK3, Nluc N; read-out: Probe EC50
[22] = target: full-length kinase/Nluc fusion proteins (Homo sapiens, UniProt Q96L34); settings: MARK4, Nluc N; read-out: Probe EC50
[23] = target: full-length kinase/Nluc fusion proteins (Homo sapiens, UniProt Q92630); settings: DYRK2, Nluc C; read-out: Probe EC50
[24] = target: full-length kinase/Nluc fusion proteins (Homo sapiens, UniProt Q9Y616); settings: IRAK3, Nluc N; read-out: Probe EC50
[25] = target: full-length kinase/Nluc fusion proteins (Homo sapiens, UniProt P31749); settings: AKT1, Nluc C; read-out: Probe EC50
[26] = target: full-length kinase/Nluc fusion proteins (Homo sapiens, UniProt P80192); settings: MAP3K9, Nluc N; read-out: Probe EC50
[27] = target: full-length kinase/Nluc fusion proteins (Homo sapiens, UniProt Q15831); settings: STK11 (NP_000446), Nluc orientation N; read-out: Probe EC50
[28] = target: full-length kinase/Nluc fusion proteins (Homo sapiens, UniProt P45983); settings: read-out: Probe EC50
[29] = target: full-length kinase/Nluc fusion proteins (Homo sapiens, UniProt Q7KZI7); settings: MARK2, Nluc N; read-out: Probe EC50
[30] = target: full-length kinase/Nluc fusion proteins (Homo sapiens, UniProt Q00535); settings: CDK5, Nluc C; read-out: Probe EC50
[31] = target: full-length kinase/Nluc fusion proteins (Homo sapiens, UniProt Q8TD19); settings: NEK9, Nluc N; read-out: Probe EC50
[32] = target: full-length kinase/Nluc fusion proteins (Homo sapiens, UniProt P53667); settings: LIMK1, Nluc C; read-out: Probe EC50

full-length kinase/Nluc fusion proteins (Homo sapiens, UniProt P45983), sequence (P45983 whole entry, the tested form may be a part): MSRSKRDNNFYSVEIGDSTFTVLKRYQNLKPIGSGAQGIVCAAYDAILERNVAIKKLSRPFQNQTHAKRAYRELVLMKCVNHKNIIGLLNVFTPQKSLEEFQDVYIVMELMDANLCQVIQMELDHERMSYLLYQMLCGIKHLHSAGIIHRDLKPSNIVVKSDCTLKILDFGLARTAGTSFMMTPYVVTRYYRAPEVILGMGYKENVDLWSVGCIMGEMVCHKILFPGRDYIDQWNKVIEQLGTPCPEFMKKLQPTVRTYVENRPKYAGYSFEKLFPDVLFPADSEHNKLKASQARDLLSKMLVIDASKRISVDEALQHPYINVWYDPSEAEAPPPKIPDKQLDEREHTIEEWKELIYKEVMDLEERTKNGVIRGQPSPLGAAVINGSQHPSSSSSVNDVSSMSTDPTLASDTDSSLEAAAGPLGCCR
full-length kinase/Nluc fusion proteins (Homo sapiens, UniProt O75460), sequence (O75460 19-977): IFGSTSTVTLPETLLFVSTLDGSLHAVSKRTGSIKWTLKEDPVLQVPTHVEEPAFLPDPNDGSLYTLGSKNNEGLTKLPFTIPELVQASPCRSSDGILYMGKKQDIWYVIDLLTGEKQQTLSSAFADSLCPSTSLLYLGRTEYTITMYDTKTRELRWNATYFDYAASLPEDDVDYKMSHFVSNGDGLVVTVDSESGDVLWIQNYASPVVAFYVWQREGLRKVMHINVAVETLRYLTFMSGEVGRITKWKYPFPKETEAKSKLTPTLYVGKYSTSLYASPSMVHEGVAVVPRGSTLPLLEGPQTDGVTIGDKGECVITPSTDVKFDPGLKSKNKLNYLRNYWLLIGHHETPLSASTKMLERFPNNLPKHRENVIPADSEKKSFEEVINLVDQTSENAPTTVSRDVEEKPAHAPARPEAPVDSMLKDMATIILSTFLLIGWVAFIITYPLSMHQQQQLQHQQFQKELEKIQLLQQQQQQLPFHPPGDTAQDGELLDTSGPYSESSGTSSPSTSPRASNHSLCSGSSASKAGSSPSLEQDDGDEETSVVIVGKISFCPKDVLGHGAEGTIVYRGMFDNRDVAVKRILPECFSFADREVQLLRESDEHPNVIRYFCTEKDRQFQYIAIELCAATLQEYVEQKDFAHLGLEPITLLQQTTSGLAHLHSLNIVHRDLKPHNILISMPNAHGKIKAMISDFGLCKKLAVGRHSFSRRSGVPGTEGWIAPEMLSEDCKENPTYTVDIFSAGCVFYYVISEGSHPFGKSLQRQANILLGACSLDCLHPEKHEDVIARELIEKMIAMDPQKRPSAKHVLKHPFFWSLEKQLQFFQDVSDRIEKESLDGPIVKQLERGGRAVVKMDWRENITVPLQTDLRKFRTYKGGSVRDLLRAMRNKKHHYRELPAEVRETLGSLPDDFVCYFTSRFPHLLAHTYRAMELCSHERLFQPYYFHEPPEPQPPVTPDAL
full-length kinase/Nluc fusion proteins (Homo sapiens, UniProt Q96L34), sequence (Q96L34 whole entry, the tested form may be a part): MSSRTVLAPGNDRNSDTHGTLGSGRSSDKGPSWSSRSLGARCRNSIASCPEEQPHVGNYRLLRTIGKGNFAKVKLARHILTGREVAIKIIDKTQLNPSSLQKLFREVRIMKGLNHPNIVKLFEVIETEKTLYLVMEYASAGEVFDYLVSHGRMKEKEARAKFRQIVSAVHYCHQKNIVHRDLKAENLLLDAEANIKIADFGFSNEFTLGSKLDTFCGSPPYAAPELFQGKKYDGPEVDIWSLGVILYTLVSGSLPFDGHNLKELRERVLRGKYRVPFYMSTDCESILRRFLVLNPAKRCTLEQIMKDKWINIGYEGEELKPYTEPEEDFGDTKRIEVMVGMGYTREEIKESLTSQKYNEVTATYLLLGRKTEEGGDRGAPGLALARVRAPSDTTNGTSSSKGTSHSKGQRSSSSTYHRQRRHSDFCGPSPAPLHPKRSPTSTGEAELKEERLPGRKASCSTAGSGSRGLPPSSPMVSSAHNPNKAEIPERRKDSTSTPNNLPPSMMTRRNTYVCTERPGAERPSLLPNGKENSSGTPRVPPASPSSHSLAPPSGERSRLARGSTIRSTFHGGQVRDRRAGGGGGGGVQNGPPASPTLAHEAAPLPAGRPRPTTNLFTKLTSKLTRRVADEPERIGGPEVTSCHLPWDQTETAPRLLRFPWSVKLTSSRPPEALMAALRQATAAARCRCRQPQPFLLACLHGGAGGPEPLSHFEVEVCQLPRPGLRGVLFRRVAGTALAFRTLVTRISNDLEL
full-length kinase/Nluc fusion proteins (Homo sapiens, UniProt Q9Y463), sequence (Q9Y463 whole entry, the tested form may be a part): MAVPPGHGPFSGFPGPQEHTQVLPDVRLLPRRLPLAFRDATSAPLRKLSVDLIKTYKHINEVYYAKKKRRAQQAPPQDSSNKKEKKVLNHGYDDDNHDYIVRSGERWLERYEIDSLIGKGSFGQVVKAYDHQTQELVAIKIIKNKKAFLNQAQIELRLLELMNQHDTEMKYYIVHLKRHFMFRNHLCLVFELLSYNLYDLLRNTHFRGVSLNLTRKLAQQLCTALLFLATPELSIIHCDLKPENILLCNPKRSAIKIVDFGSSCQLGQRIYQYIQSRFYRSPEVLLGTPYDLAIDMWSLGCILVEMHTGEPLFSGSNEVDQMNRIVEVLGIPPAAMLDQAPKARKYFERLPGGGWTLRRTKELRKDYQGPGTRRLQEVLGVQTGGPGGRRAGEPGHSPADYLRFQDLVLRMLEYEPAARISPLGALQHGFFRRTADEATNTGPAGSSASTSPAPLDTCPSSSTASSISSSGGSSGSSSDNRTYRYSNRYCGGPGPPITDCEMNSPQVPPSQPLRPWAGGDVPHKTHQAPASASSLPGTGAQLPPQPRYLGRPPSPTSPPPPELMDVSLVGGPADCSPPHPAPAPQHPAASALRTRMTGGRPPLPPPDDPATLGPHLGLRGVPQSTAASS
full-length kinase/Nluc fusion proteins (Homo sapiens, UniProt P04629), sequence (P04629 33-796): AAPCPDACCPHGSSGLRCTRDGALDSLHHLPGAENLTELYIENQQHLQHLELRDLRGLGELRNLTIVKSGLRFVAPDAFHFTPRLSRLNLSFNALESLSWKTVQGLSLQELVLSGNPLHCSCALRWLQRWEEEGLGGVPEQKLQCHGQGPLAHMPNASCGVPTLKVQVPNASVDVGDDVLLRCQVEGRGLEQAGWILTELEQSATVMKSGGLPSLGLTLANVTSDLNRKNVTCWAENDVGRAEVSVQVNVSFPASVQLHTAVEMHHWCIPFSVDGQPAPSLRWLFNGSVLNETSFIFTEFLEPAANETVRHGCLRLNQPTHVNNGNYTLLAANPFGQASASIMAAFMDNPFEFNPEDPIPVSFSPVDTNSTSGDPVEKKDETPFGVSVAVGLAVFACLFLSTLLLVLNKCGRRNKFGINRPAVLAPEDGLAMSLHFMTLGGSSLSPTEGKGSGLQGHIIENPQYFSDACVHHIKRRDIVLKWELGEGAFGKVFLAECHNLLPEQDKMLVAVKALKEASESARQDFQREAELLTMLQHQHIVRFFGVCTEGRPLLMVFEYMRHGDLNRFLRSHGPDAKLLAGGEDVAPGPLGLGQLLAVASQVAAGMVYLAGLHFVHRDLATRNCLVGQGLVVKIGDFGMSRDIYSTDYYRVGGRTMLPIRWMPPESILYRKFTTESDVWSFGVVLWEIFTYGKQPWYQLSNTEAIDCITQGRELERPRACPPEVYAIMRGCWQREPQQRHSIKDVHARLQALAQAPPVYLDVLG
full-length kinase/Nluc fusion proteins (Homo sapiens, UniProt Q7KZI7), sequence (Q7KZI7 whole entry, the tested form may be a part): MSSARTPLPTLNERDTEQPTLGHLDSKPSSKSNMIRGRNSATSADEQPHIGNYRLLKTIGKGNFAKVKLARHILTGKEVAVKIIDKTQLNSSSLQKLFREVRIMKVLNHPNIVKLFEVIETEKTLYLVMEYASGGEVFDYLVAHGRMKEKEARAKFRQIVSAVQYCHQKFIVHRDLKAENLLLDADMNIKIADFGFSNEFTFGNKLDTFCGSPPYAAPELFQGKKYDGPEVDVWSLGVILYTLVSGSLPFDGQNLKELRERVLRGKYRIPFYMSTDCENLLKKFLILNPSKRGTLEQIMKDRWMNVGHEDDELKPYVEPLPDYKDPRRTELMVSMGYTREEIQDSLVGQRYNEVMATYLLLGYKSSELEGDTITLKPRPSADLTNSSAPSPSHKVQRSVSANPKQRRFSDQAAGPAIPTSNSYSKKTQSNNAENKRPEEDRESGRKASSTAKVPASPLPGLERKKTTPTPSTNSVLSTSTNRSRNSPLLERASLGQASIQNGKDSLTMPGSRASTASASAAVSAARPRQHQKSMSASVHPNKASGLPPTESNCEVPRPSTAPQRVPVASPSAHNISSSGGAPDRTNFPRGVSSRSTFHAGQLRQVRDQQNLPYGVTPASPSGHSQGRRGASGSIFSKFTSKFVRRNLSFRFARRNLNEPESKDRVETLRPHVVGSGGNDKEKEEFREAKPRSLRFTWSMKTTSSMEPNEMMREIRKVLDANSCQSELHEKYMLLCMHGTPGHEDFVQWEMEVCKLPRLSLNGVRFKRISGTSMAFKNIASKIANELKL
full-length kinase/Nluc fusion proteins (Homo sapiens, UniProt P51956), sequence (P51956 whole entry, the tested form may be a part): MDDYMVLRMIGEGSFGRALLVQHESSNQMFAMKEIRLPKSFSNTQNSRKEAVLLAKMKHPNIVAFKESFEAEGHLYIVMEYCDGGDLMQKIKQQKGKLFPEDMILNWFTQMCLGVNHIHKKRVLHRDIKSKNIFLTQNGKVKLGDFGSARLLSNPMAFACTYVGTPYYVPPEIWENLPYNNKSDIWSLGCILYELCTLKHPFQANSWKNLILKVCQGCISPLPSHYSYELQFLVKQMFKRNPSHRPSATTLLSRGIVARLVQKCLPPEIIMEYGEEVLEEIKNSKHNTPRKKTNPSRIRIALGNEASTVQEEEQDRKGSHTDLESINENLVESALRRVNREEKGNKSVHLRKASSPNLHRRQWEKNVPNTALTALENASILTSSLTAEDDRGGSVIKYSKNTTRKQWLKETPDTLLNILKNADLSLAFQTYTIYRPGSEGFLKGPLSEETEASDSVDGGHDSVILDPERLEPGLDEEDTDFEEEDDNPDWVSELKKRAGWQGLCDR

- EC50 [1]: > 1000 nM
- EC50 [2]: 200 nM
- EC50 [3]: 200 nM
- EC50 [4]: 30 nM
- EC50 [5]: 600 nM
- EC50 [6]: 500 nM
- EC50 [7]: > 1000 nM
- EC50 [8]: > 1000 nM
Compound: Cc1nc(Nc2ncc(C(=O)Nc3c(C)cccc3Cl)s2)cc(N2CCN(CCOCCNC(=O)CCc3ccc4n3[B-](F)(F)[N+]3=C(c5ccc[nH]5)C=CC3=C4)CC2)n1 [Energy Transfer Probe 6, 2-((6-(4-(2-(2-aminoethoxy)ethyl)piperazin-1-yl)-2-methylpyrimidin-4-yl)amino)-N-(2-chloro-6-methylphenyl)thiazole-5-carboxamide-NanoBRET 590]

- EC50 [9]: 100 nM
- EC50 [10]: 200 nM
- EC50 [11]: > 1000 nM
- EC50 [12]: 40 nM
- EC50 [13]: > 1000 nM
- EC50 [14]: > 1000 nM
- EC50 [15]: > 1000 nM
- EC50 [16]: 400 nM
- EC50 [17]: > 1000 nM
- EC50 [18]: 200 nM
- EC50 [19]: > 1000 nM
- EC50 [20]: 400 nM
- EC50 [21]: > 1000 nM
- EC50 [22]: > 1000 nM
- EC50 [23]: > 1000 nM
- EC50 [24]: 60 nM
- EC50 [25]: > 1000 nM
- EC50 [26]: > 1000 nM
- EC50 [27]: > 1000 nM
- EC50 ([28]; JNK1, Nluc N): > 1000 nM
- EC50 ([28]; MAPK8, Nluc N): 300 nM
- EC50 [29]: > 1000 nM
- EC50 [30]: > 1000 nM
- EC50 [32]: > 1000 nM
Compound: CNC(=O)c1ccccc1Nc1nc(Nc2ccc(N3CCN(C(=O)CCOCCOCCOCCOCCNC(=O)CCc4ccc5n4[B-](F)(F)[N+]4=C(c6ccc[nH]6)C=CC4=C5)CC3)cc2)ncc1Cl [Energy Transfer Probe 5, 2-((2-((4-(4-(1-amino-3,6,9,12-tetraoxapentadecan-15-oyl)piperazin-1-yl)phenyl)amino)-5-chloropyrimidin-4-yl)amino)-N-methylbenzamide-NanoBRET 590]
- EC50 [31]: > 1000 nM
